The source of these data is EPA's ToxRefDB 2.

The structures appear in SMILES notation.

The subject of series [1] is rat. Particulars: Prenatal developmental toxicity study, wistar, Oral, Gavage/Intubation, dose end: 16 GD.
In series [2] the test system is dog. Particulars: Subchronic oral toxicity in nonrodent, beagle, Capsule, dose end: 90 day, group: systemic.
Series [3] deals with rat. The note with it: Combined chronic toxicity/carcinogenicity, wistar, Oral, Feed, dose end: 104 week, group: systemic.
For series [4], the system named is rat. The note with it: Prenatal developmental toxicity study, wistar, Oral, Gavage/Intubation, dose end: 16 GD. The source holds these as a separate data set.
Series [5] relates to rabbit. Particulars: Prenatal developmental toxicity study; new zealand white; Oral; Gavage/Intubation; dose end: 19 GD; group: maternal; reproductive / reproductive performance / aborted / aborted + reproductive / reproductive performance / resorptions / resorptions + systemic….
Series [6] relates to hamster. The note with it: Subchronic oral toxicity in rodents, golden syrian, Feed, dose end: 13 week, group: systemic.
Series [7] relates to hamster. Particulars: Subchronic oral toxicity in rodents, golden syrian, Feed, dose end: 90 day, group: systemic, systemic / clinical chemistry / cholesterol / cholesterol + systemic / clinical chemistry / creatinine / creatinine + systemic / clinical ….
The test system of series [8] is rat. Particulars: Subchronic oral toxicity in rodents, wistar, Feed, dose end: 90 day, group: systemic, systemic / hematology / erythrocyte (rbc) count differential / erythrocyte (rbc) + systemic / hematology / hematocrit (hct) / hematocrit (….
The subject of series [9] is hamster. Particulars: Carcinogenicity, golden syrian, Oral, Feed, dose end: 80 week, group: systemic.
Series [10] has as its system dog. Particulars: Chronic toxicity, beagle, Oral, Capsule, dose end: 52 week, group: systemic.
Series [11] concerns dog. The note with it: Subchronic oral toxicity in nonrodent, beagle, Gavage/Intubation, dose end: 6 week, group: systemic.
For series [12], the system named is rat. The note with it: Subchronic oral toxicity in rodents, sprague dawley, Gavage/Intubation, dose end: 6 week, group: systemic.
Series [13] has as its system rat. The note with it: Combined chronic toxicity/carcinogenicity; fischer; Oral; Feed; dose end: 2 year; group: systemic; systemic / pathology microscopic / liver / degeneration + systemic / pathology microscopic / liver / hyperplasia + systemic / pathology ….
The test system of series [14] is rat. Particulars: Subchronic oral toxicity in rodents, fischer, Feed, dose end: 13 week, group: systemic.
Series [15] deals with mouse. The note with it: Subchronic oral toxicity in rodents, b6c3f1, Feed, dose end: 13 week, group: systemic, systemic / in life observation / body weight / body weight.
Series [16] relates to mouse. Particulars: Carcinogenicity, b6c3f1, Oral, Feed, dose end: 2 year, group: systemic.
The mark [17] stands for this setting: group: developmental, developmental / developmental malformation / bone / incomplete ossification + developmental / developmental malformation / bone / [other] + ….
Setting [18] is: group: maternal, systemic / in life observation / body weight / body weight + systemic / in life observation / food consumption / food consumption + systemic….
[19] abbreviates: systemic / clinical chemistry / aminopyrine-n-demethylase / aminopyrine-n-demethylase.
The mark [20] stands for this setting: systemic / in life observation / body weight / body weight gain + systemic / in life observation / food consumption / food consumption + ….
[21] abbreviates: group: developmental, developmental / developmental malformation / bone / bipartite ossification + developmental / developmental malformation / bone / delayed ….
The mark [22] stands for this setting: group: maternal, systemic / in life observation / food consumption / food consumption + systemic / in life observation / mortality / mortality + reproductive….
[23] abbreviates: systemic / in life observation / body weight / body weight gain + systemic / organ weight / liver / absolute + systemic / clinical chemistry….
Where [24] appears, read: systemic / pathology microscopic / liver / adenoma + systemic / pathology microscopic / liver / hemangioma + systemic / pathology ….
The mark [25] stands for this setting: systemic / pathology microscopic / ovary / sex cord stromal tumor, benign.
Setting [26] is: systemic / clinical chemistry / alanine aminotransferase (alt/sgpt) / alanine aminotransferase (alt/sgpt) + systemic / organ weight / liver….
The mark [27] stands for this setting: systemic / in life observation / clinical signs / feces, discoloration + systemic / in life observation / clinical signs / salivation + ….
Where [28] appears, read: systemic / in life observation / clinical signs / salivation + systemic / organ weight / epididymis / absolute + systemic / organ weight / ….
Where [29] appears, read: systemic / clinical chemistry / bilirubin / total bilirubin + systemic / hematology / neutrophils / neutrophils + systemic / in life ….
Setting [30] is: systemic / in life observation / body weight / body weight + systemic / in life observation / body weight / body weight gain + systemic / in….
The mark [31] stands for this setting: systemic / in life observation / body weight / body weight.
Setting [32] is: systemic / in life observation / body weight / body weight + systemic / in life observation / food consumption / food consumption + systemic….
Where [33] appears, read: systemic / pathology microscopic / liver / necrosis.
[34] abbreviates: systemic / pathology microscopic / liver / necrosis + systemic / pathology microscopic / liver / adenoma/carcinoma combined + systemic / ….

For orientation: LOAEL means the lowest dose or exposure tested at which an adverse effect was seen. The term NOAEL denotes the highest dose or exposure tested at which no adverse effect was seen. For `CCO/N=C(\CC)C1=C(O)CC(c2c(C)cc(C)cc2C)CC1=O` (stereo not given) [Tralkoxydim], the LOAEL in [1] (group: developmental, developmental / developmental malformation / bone / incomplete ossification) came to 30 mg/kg/day; in [1] (setting [18]), 200 mg/kg/day; in [2] (setting [19]), 5 mg/kg/day; in series [3] (setting [20]) it was 118 mg/kg/day; in [4] (setting [21]), 30 mg/kg/day; in series [4] (group: maternal, systemic / in life observation / food consumption / food consumption + systemic / in life observation / mortality / mortality) it was 200 mg/kg/day. For the same compound, the LOAEL in series [5] was 100 mg/kg/day; in series [6] (systemic / in life observation / body weight / body weight gain + systemic / organ weight / liver / absolute) it was 650 mg/kg/day; in series [7], 337 mg/kg/day; in [8], 205 mg/kg/day; in series [9] (setting [24]) it was greater than 672 mg/kg/day; in [10] (setting [26]), 5 mg/kg/day. Moreover, the LEL was 30 mg/kg/day in [1] (group: developmental, developmental / developmental malformation / bone / incomplete ossification + developmental / developmental malformation / bone / [other]); 200 mg/kg/day in series [1] (setting [18]); 0.5 mg/kg/day in series [2] (setting [19]); 23.1 mg/kg/day in [3] (systemic / pathology microscopic / pituitary gland / adenoma); 3 mg/kg/day in series [4] (group: developmental, developmental / developmental malformation / bone / delayed ossification); 200 mg/kg/day in series [4] (setting [22]). The LEL was determined as 100 mg/kg/day in series [5]; 328 mg/kg/day in [6] (systemic / pathology microscopic / liver / proliferation); 337 mg/kg/day in series [7]; 205 mg/kg/day in [8]; 27.8 mg/kg/day in series [9] (setting [25]); 5 mg/kg/day in series [10] (setting [26]). The NEL in [1] (setting [17]) was 3 mg/kg/day; in series [2] (setting [19]) it was less than 0.5 mg/kg/day; in series [3] (setting [20]), 2.3 mg/kg/day; in [4] (setting [21]) it was 1 mg/kg/day; in series [4] (setting [22]) it was 30 mg/kg/day; in series [5] it was 20 mg/kg/day. Also, the NEL in series [6] (setting [23]) is 122 mg/kg/day; in series [7], 41 mg/kg/day; in series [8], 20.5 mg/kg/day; in [9] (setting [25]), less than 27.8 mg/kg/day; in series [10] (systemic / clinical chemistry / cholesterol / cholesterol + systemic / clinical chemistry / protein / protein + systemic / clinical …), 0.5 mg/kg/day. Besides, the NOAEL is 3 mg/kg/day in series [1] (setting [17]); 0.5 mg/kg/day in series [2] (systemic / clinical chemistry / aminopyrine-n-demethylase / aminopyrine-n-demethylase + systemic / clinical chemistry / albumin / albumin + …); 23.1 mg/kg/day in series [3] (setting [20]); 3 mg/kg/day in series [4] (setting [21]); 30 mg/kg/day in [4] (setting [22]); 20 mg/kg/day in series [5]. The no-observed-adverse-effect level (NOAEL) is 328 mg/kg/day in series [6] (setting [23]); 41 mg/kg/day in series [7]; 20.5 mg/kg/day in series [8]; no less than 672 mg/kg/day in series [9] (setting [24]); 0.5 mg/kg/day in series [10] (setting [26]).

Take `N#Cc1ccc(N(CC(N)=O)CC(F)(F)F)cc1C(F)(F)F`: the lowest-observed-adverse-effect level (LOAEL) in [11] (setting [27]) was greater than 3 mg/kg/day; in series [12] (setting [29]), greater than 30 mg/kg/day. In addition, the no-observed-adverse-effect level (NOAEL) is no less than 3 mg/kg/day in series [11] (setting [27]) and no less than 30 mg/kg/day in series [12] (setting [29]). Besides, the LEL in series [11] (setting [28]) came to 0.3 mg/kg/day; in series [12] (setting [30]), 1 mg/kg/day. The NEL was less than 0.3 mg/kg/day in [11] (setting [28]) and less than 1 mg/kg/day in series [12] (setting [30]).

Take `O=C(O)C1C(C(=O)O)C2(Cl)C(Cl)=C(Cl)C1(Cl)C2(Cl)Cl` (stereo not given) [Chlorendic acid]: the LEL in series [13] turned out to be 27 mg/kg/day; in series [14] (setting [31]), 63 mg/kg/day; in series [15], 188 mg/kg/day; in [16] (setting [34]), 89 mg/kg/day. The LOAEL in series [13] stood at 27 mg/kg/day; in [14] (setting [31]), 63 mg/kg/day; in series [15], 188 mg/kg/day; in series [16] (setting [33]) it was 89 mg/kg/day. The NEL in series [13] is less than 27 mg/kg/day; in [14] (setting [32]), 31 mg/kg/day; in [15], less than 188 mg/kg/day; in series [16] (setting [34]) it was less than 89 mg/kg/day. For the same compound, the NOAEL in series [13] was less than 27 mg/kg/day; in [14] (setting [32]), 31 mg/kg/day; in series [15] it was less than 188 mg/kg/day; in series [16] (setting [33]), less than 89 mg/kg/day.
